Where two headings read alike, the source gives them in different places.
Experiments:
[1] = Mouse pharmacokinetic study; assay type: in vivo; conditions: Balb/c mouse; for clearance / Vd / bioavailability / AUC(0-t) / Cmax: plasma; for clearance / Vd: iv, single 3 mg/kg; for Vd: i.v., read-out: Vss; for bioavailability: 100 mg/kg p.o. vs 3 mg/kg i.v., read-out: Oral BA (F %); for AUC(0-t) / Cmax: single 100 mg/kg; for Cmax: p.o., read-out: Cmax
PARP7 enzyme = PARP7 enzyme (Homo sapiens (Human), UniProt Q7Z3E1); assay: PARP7 enzymatic experiment (HTRF assay); assay type: biochemical; conditions: 4PL fit
PARP7 enzyme, sequence (Q7Z3E1 456-657): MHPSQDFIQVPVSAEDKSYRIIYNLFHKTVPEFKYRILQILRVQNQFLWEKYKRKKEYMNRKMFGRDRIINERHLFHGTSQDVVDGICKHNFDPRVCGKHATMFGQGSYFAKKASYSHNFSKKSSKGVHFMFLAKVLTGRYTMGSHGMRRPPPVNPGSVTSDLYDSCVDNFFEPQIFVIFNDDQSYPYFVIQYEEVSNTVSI

[2] = system: lung cancer cell line H1373 (high expression of PARP7); assay: Lung cancer cell proliferation inhibition experiment (CTG method); assay type: cell-based; conditions: H1373 cells, 144 hrs incubation, Cell Titer Glo

SMILES	IC50 (PARP7 enzyme) [µM]	IC50 [2] [µM]	IC50 ([2]; Homo sapiens, NCI-H1373, 144 h) [µM]	other results
C[C@@H](COCCC(=O)N1CCN2c3nc(F)c(Cl)cc3N(C)C(=O)[C@@H]2C1)Nc1cn[nH]c(=O)c1C(F)(F)F [Compound 14A]	0.0106	–	–	pharmacokinetic properties (in words) [1]: good pharmacokinetic properties
C[C@@H](COCCC(=O)N1CCN2c3ncc(C(F)(F)F)cc3OC[C@@H]2C1)Oc1cn[nH]c(=O)c1C(F)(F)F [Compound 51]	–	–	–	IC50 ([2]; Homo sapiens, NCI-H1373): 0.0346 µM; clearance [1]: 22 mL/min/kg; Vd [1]: 0.5 L/kg; bioavailability ([1]; oral): 121%; AUC(0-t) ([1]; po): 91400 ng·h/mL; Cmax ([1]; po): 38200 ng/mL
C[C@@H](COCCC(=O)N1CCN2c3ncc(F)cc3N(C3CC3)C(=O)[C@@H]2C1)Nc1cn[nH]c(=O)c1C(F)(F)F [Compound 28A]	0.00753	0.275	–	–
O=C(CCOC[C@@H]1CCN1c1cn[nH]c(=O)c1C(F)(F)F)N1CCN2c3ncc(C(F)(F)F)cc3OC[C@H]2C1 [Compound 89B]	0.000658	–	0.00692	–
C[C@@H](COC[C@@H](O)C(=O)N1CCN2c3ncc(Cl)cc3OCCC2C1)Nc1cn[nH]c(=O)c1C(F)(F)F (stereo partly drawn) [Compound 64A]	0.0015	–	0.208	–
CC(C)N1C(=O)[C@@H]2CN(C(=O)CCOC[C@H](C)Nc3cn[nH]c(=O)c3C(F)(F)F)CCN2c2ncc(C(F)(F)F)cc21 (single isomer, unassigned) [Compound 83A]	0.00379	–	0.143	–
Cc1c(Cl)cnc2c1OCC[C@@H]1CN(C(=O)CCOC[C@H](C)Oc3cn[nH]c(=O)c3C(F)(F)F)CCN21 (single isomer, unassigned) [Compound 85A]	–	–	0.0207	clearance [1]: 60 mL/min/kg; Vd [1]: 0.5 L/kg; bioavailability ([1]; po): 301%; AUC(0-t) ([1]; po): 86100 ng·h/mL; Cmax ([1]; po): 24200 ng/mL
C[C@@H](COCCC(=O)N1CCN2c3ncc(F)cc3N(C3CC3)C(=O)[C@@H]2C1)Nc1cn[nH]c(=O)c1C(F)(F)F [Compound 28B]	0.00787	0.761	–	–
C[C@@H](COCCC(=O)N1CCN2c3ncc(Cl)cc3SCC[C@@H]2C1)Nc1cn[nH]c(=O)c1C(F)(F)F [Compound 73A]	0.000769	–	0.0223	–
C[C@@H](COCCC(=O)N1CCN2c3ncc(C(F)(F)F)cc3C(=O)C[C@@H]2C1)Nc1cn[nH]c(=O)c1C(F)(F)F (single isomer, unassigned) [Compound 76A]	0.00331	0.36	–	–
Cc1c2n(c3ncc(C(F)(F)F)cc13)CCN(C(=O)CCOC[C@H](C)Oc1cn[nH]c(=O)c1C(F)(F)F)C2 [Compound 45]	–	–	0.013	pharmacokinetic properties (in words) [1]: good pharmacokinetic properties
C[C@@H](COCCC(=O)N1CCN2c3ncc(Cl)cc3N(C)C(=O)[C@H]2C1)Nc1cn[nH]c(=O)c1C(F)(F)F (single isomer, unassigned) [Compound 20B]	0.00185	–	0.0574	–
C[C@@H](COCCC(=O)N1CCN2c3ncc(F)cc3N(C)C(=O)[C@@H]2C1)Nc1cn[nH]c(=O)c1C(F)(F)F (single isomer, unassigned) [Compound 19A]	0.0017	–	0.269	–
CN1C(=O)[C@H]2CN(C(=O)CCOC[C@@H]3CCCN3c3cn[nH]c(=O)c3C(F)(F)F)CCN2c2ncc(C(F)(F)F)cc21 (single isomer, unassigned) [Compound 98B]	0.00136	0.0371	–	–
CN1C(=O)[C@@H]2CN(C(=O)CCOC[C@@H]3CCCN3c3cn[nH]c(=O)c3C(F)(F)F)CCN2c2ncc(C(F)(F)F)cc21 (single isomer, unassigned) [Compound 98A]	0.00125	0.0555	–	–
O=C(CCOC[C@@H]1CCN1c1cn[nH]c(=O)c1C(F)(F)F)N1CCn2c(cc3cc(C(F)(F)F)cnc32)C1 [Compound 91]	0.000496	–	0.0113	–
CC(=O)c1c(N[C@@H](C)COCCC(=O)N2CCN3c4ncc(C(F)(F)F)cc4N(C4CC4)C(=O)C3C2)cn[nH]c1=O (stereo partly drawn) [Compound 27]	0.00698	–	0.441	–
C[C@@H](COCCC(=O)N1CCN2c3ncc(C(F)(F)F)cc3[C@](C)(O)[C@@H]2C1)Nc1cn[nH]c(=O)c1C(F)(F)F [Compound 79B]	0.00467	–	0.341	–
Cc1c2n(c3ncc(C(F)(F)F)cc13)CCN(C(=O)CCOC[C@@H]1CCN1c1cn[nH]c(=O)c1C(F)(F)F)C2 [Compound 92]	0.000686	–	0.00802	–
C[C@@H](COCCC(=O)N1CCN2c3ncc(F)cc3N(C)C(=O)[C@H]2C1)Nc1cn[nH]c(=O)c1C(F)(F)F [Compound 19B]	0.00275	–	0.221	–
CN1C(=O)[C@@H]2CN(C(=O)CCOC[C@@H]3CCN3c3cn[nH]c(=O)c3C(F)(F)F)CCN2c2ncc(Cl)cc21 [Compound 88A]	0.000416	–	0.00217	–
CC(C)N1C(=O)[C@@H]2CN(C(=O)CCOC[C@H](C)Nc3cn[nH]c(=O)c3C(F)(F)F)CCN2c2ncc(C(F)(F)F)cc21 (single isomer, unassigned) [Compound 24A]	0.00207	–	–	pharmacokinetic properties (in words) [1]: good pharmacokinetic properties

SMILES	IC50 (PARP7 enzyme) [µM]	IC50 [2] [µM]	IC50 ([2]; Homo sapiens, NCI-H1373, 144 h) [µM]	other results
C[C@H]1C[C@H]2CN(C(=O)CCOC[C@@H]3CCN3c3cn[nH]c(=O)c3C(F)(F)F)CCN2c2ncc(C(F)(F)F)cc21 (single isomer, unassigned) [Compound 94D]	0.00355	0.0158	–	–
CC[C@@H](COCCC(=O)N1CCN2c3ncc(C(F)(F)F)cc3N(C)C(=O)[C@@H]2C1)Nc1cn[nH]c(=O)c1C(F)(F)F [Compound 15A]	0.00193	–	0.0824	–
CC[C@@H](COCCC(=O)N1CCN2c3ncc(C(F)(F)F)cc3N(C)C(=O)[C@H]2C1)Nc1cn[nH]c(=O)c1C(F)(F)F [Compound 15B]	0.00286	–	0.187	–
COC[C@@H](COCCC(=O)N1CCN2c3ncc(C(F)(F)F)cc3OC[C@H]2C1)Nc1cn[nH]c(=O)c1C(F)(F)F (single isomer, unassigned) [Compound 66A]	0.00205	0.0855	–	–
CC(C)N1C(=O)[C@H]2CN(C(=O)CCOC[C@H](C)Nc3cn[nH]c(=O)c3C(F)(F)F)CCN2c2ncc(C(F)(F)F)cc21 (single isomer, unassigned) [Compound 83B]	0.00364	–	0.468	–
CC(=O)c1c(N[C@@H](C)COCCC(=O)N2CCN3c4ncc(C(F)(F)F)cc4N(C)C(=O)[C@@H]3C2)cn[nH]c1=O [Compound 13A]	0.00136	–	0.0357	–
O=C(CCOC[C@@H]1CCN1c1cn[nH]c(=O)c1C(F)(F)F)N1CCN2c3ncc(C(F)(F)F)cc3C(F)(F)C[C@@H]2C1 [Compound 93A]	0.00282	–	0.0156	–
C[C@@H](COCCC(=O)N1CCN2c3ncc(C(F)(F)F)cc3C(F)(F)C[C@H]2C1)Nc1cn[nH]c(=O)c1C(F)(F)F (single isomer, unassigned) [Compound 77B]	0.004	0.334	–	–
COC[C@@H](COCCC(=O)N1CCN2c3ncc(C(F)(F)F)cc3N(C(C)C)C(=O)[C@H]2C1)Nc1cn[nH]c(=O)c1C(F)(F)F [Compound 25B]	0.00536	–	0.0534	–
CC(=O)c1c(N[C@@H](C)COCCC(=O)N2CCN3c4ncc(C(F)(F)F)cc4N(C)C(=O)[C@H]3C2)cn[nH]c1=O [Compound 13B]	0.00173	–	0.0522	–
COC[C@@H](COCCC(=O)N1CCN2c3ncc(C(F)(F)F)cc3OC[C@@H]2C1)Nc1cn[nH]c(=O)c1C(F)(F)F (single isomer, unassigned) [Compound 66B]	0.00182	0.0704	–	–
C[C@@H](COCCC(=O)N1CCN2c3ncc(C(F)(F)F)cc3SCC[C@H]2C1)Oc1cn[nH]c(=O)c1C(F)(F)F [Compound 86B]	0.0205	–	0.246	–
C[C@@H]1C[C@H]2CN(C(=O)CCOC[C@@H]3CCN3c3cn[nH]c(=O)c3C(F)(F)F)CCN2c2ncc(C(F)(F)F)cc21 (single isomer, unassigned) [Compound 94B]	0.00294	0.0133	–	–
Cc1c(Cl)cnc2c1OCC[C@H]1CN(C(=O)CCOC[C@H](C)Oc3cn[nH]c(=O)c3C(F)(F)F)CCN21 [Compound 85B]	0.00784	–	0.311	–
C[C@@H](COCCC(=O)N1CCN2c3ncc(C(F)(F)F)cc3[C@](C)(O)[C@H]2C1)Nc1cn[nH]c(=O)c1C(F)(F)F [Compound 79D]	0.00318	–	0.742	–
C[C@@H](COCCC(=O)N1CCN2c3ncc(C(F)(F)F)cc3[C@@](C)(O)[C@H]2C1)Nc1cn[nH]c(=O)c1C(F)(F)F [Compound 79C]	0.00477	–	0.456	–
C[C@@H](COCCC(=O)N1CCN2c3ncc(C(F)(F)F)cc3C(=O)C[C@H]2C1)Nc1cn[nH]c(=O)c1C(F)(F)F (single isomer, unassigned) [Compound 76B]	0.00504	0.404	–	–
C[C@@H](COCCC(=O)N1CCN2c3ncc(C(F)(F)F)cc3C(F)(F)C[C@@H]2C1)Nc1cn[nH]c(=O)c1C(F)(F)F (single isomer, unassigned) [Compound 77A]	0.0126	0.349	–	–
CC(=O)c1c(N[C@@H](C)COCCC(=O)N2CCN3c4ncc(C(F)(F)F)cc4OCC[C@H]3C2)cn[nH]c1=O (single isomer, unassigned) [Compound 70A]	0.0015	0.0287	–	–
COC[C@@H](COCCC(=O)N1CCN2c3ncc(C(F)(F)F)cc3N(C(C)C)C(=O)[C@@H]2C1)Nc1cn[nH]c(=O)c1C(F)(F)F [Compound 25A]	0.00372	–	0.0381	–
CCN1C(=O)[C@H]2CN(C(=O)CCOC[C@H](C)Nc3cn[nH]c(=O)c3C(F)(F)F)CCN2c2ncc(Br)cc21 [Compound 23B]	0.000863	–	0.0461	–
CC(=O)c1c(N[C@@H](C)COCCC(=O)N2CCN3c4ncc(C(F)(F)F)cc4OCC3C2)cn[nH]c1=O (stereo partly drawn) [Compound 69]	0.00392	0.483	–	–
